Data published in patent EP2818472A1, “Imidazo[4,5-c]pyridine and pyrrolo[3,2-c]pyridine compounds as G-protein-coupled receptor kinase 5 (GRK5) modulators” (Max-Planck-Gesellschaft zur Förderung der Wissenschaften …, priority 2013, dated 2014).

Key:
[1] = system: beta-TC6 cells; test: Insulin release by beta-TC6 cells in high glucose medium, rat/mouse insulin ELISA; type: cell-based; conditions: 2 h; for Insulin release by beta-TC6 cells at 5µM [%]: 5 µM compound, high glucose (4.5 g/L) DMEM, % increase in regard to the DMSO control (set at 0%); for effect on the insulin release by beta-TC6 cells compared with the positive control Sunitinib: 5 µM, high glucose (4.5 g/L)
Protocol: After having identified the most promising compounds acting as GRK5 inhibitors and determined the IC50 values, the effect of the compounds of the example 2 on the release of insulin by beta-TC6 was determined. […] Release of insulin was detected using a rat/mouse insulin ELISA.
To order to measure the insulin released by beta-TC6 insulinoma (mouse) cells upon treatment with the compounds of the present invention, beta-TC6 insulinoma (mouse)cells were washed and incubated for 2 h in high (4.5 g/L) or low (1.125 g/L) glucose media at 37 °C. After incubation, the supernatant of the beta-TC6 insulinoma cells was diluted 1:20. The insulin release was measured with rat/mouse insulin ELISA (Merck Millipore Darmstadt, Cat. # EZRMI-13K) by following the manufacture protocol. The enzyme activity of the horseradish peroxidase of the immobilized biotinylated antibodies was monitored spectrophotometrically by the increased absorbency at 490 nm, and corrected by the absorbency at 610 nm. […] Table 3: Insulin release by beta-TC6 cells treated with the compounds of the present invention (the % values are in regard to the DMSO control, thus 30% means an increase of insulin release of 30% in regard to the physiological conditions where the insulin release is set at 0%)

[2] = system: beta-TC6 cells; test: Insulin HTRF assay (relative activity Ar) in beta-TC6 cells; type: cell-based, mouse; conditions: Mus musculus, Beta-TC6, 4 h, insulin HTRF, supernatant of beta-TC6 cells, incubation with test compound at 37°C for 2, 3, 4h; read-out: Ar (relative activity)
Procedure, shortened: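 beta-TC6 cells (15k/well, seeded 24 or 48 h) washed, then exposed to compound in induction buffer (0.5% DMSO final) for 2, 3 or 4 h at 37°C.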

[3] = system: C2C12 cells; test: 2-NBDG glucose uptake in C2C12 cells, flow cytometry; type: cell-based; conditions: 5 µM compound, 1 h, glucose free media with 100 µM 2-NBDG
Protocol: To investigate the impact of the GRK5 inhibitors on glucose uptake, the fluorescent D-glucose analog 2-[N-(7-nitrobenz-2-oxa-1,3-diazol-4-yl)-amino]-2-deoxy-D-glucose (2-NBDG) was used. 2-NBDG is a fluorescently-labeled deoxyglucose analog that is commonly used to directly monitor glucose uptake by living cells. For 2-NBDG detection, cells were cultured for 1 h together with 5 µM of an inventive compound in glucose free media supplied with 100 µM 2-NBDG at 37 °C before collecting. Furthermore, as internal controls, samples of glucose free media, respectively glucose free media with test compound, were tested. Subsequently, cells were washed, trypsinized and harvested in ice-cold PBS before centrifuged at 1.6 x10^3 rpm at 4°C. Cells were analyzed by flow cytometry (FACS Calibur, BD Bioscience, respectively a BD Accuri® C6 Flow Cytometer). For evaluation, cells were gated using the side- and forward scatter SSC/FSC and quantified by excited at 488 nm and collected at […] (FL1). Table 4: 2-NBDG glucose uptake (%) by cells treated with the compounds of the present application

[4] = system: beta-TC6 cells; test: Glucose dependent insulin release by beta-TC6 cells in low glucose medium, rat/mouse insulin ELISA; type: cell-based; design: unit not given here; conditions: media with 1.125 mM (20 mg/dL) glucose, 2 h, compared with DMSO control

Row | Structure (SMILES) | Insulin release by beta-TC6 cells at 5µM [%] [1] [%] | Emax [2] [%] | effect on the insulin release by beta-TC6 cells compared with the positive control Sunitinib [1] | 2-NBDG Glucose Uptake [%] [3] [%] | insulin release in low glucose media [4]
1 | COc1ccc(-c2nc3c(Nc4ccc(OC)c(OC)c4)nccc3[nH]2)cc1 [Compound 392, N-(3,4-dimethoxyphenyl)-2-(4-methoxyphenyl)-1H-imidazo[4,5-c]pyridin-4-amine] | 30.52 | 50 to 100 |  |  | 
2 | COc1ccc(Nc2nccc3[nH]c(-c4cccc(OC)c4F)nc23)cc1 [Compound 475, 2-(2-fluoro-3-methoxy-phenyl)-N-(4-methoxyphenyl)-1H-imidazo[4,5-c]pyridin-4-amine] | 48.72 | 50 to 100 |  |  | 
3 | NC(=O)c1ccc(Nc2cc3[nH]c(-c4cccc(F)c4)cc3cn2)cc1 [Compound 6, 4-[[2-(3-fluorophenyl)-1H-pyrrolo[3,2-c]pyridin-6-yl]amino]benzamide] | 81.25 | 50 to 100 | level similar to Sunitinib | 45.35 | 
4 | Cn1c(-c2cccnc2)cc2c(Nc3cccc(C(F)(F)F)c3)nccc21 [Compound 243, 1-methyl-2-(3-pyridyl)-N-[3-(trifluoromethyl)phenyl]pyrrolo[3,2-c]pyridin-4-amine] | 142.26 | 0 to 30 | better effect on the insulin release by beta-TC6 cells than the positive control Sunitinib | 48.87 | 
5 | CN1CCN(c2ccc(Nc3cc4[nH]c(-c5cccc(N)c5)cc4cn3)cc2)CC1 [Compound 3, 2-(3-aminophenyl)-N-[4-(4-methylpiperazin-1-yl)phenyl]-1H-pyrrolo[3,2-c]pyridin-6-amine] | 15.43 | > 100 |  | 38.51 | 
6 | COc1ccccc1-c1cc2c(Nc3ccc(SC)cc3)nccc2n1C [Compound 305, 2-(2-methoxyphenyl)-1-methyl-N-(4-methylsulfanylphenyl)pyrrolo[3,2-c]pyridin-4-amine] | 20.24 | 30 to 50 |  | 50.81 | 
7 | CCN(CC)CCNC(=O)c1c(C)[nH]c(/C=C2\C(=O)Nc3ccc(F)cc32)c1C [Sunitinib] |  |  |  |  | 0.77 ± 0.03
8 | COc1ccc(Nc2cc3c(cn2)cc(-c2cnn(C)c2)n3C)cc1 [Compound 137, N-(4-methoxyphenyl)-1-methyl-2-(1-methylpyrazol-4-yl)pyrrolo[3,2-c]pyridin-6-amine] |  | 50 to 100 |  | 69.73 | 
